Target: T1, thrombin (Bos taurus, UniProt P00735)
T1 construct: purchased Sigma T-3399
Assay: biological assay for thrombin inhibitory activity (fluorogenic substrate)
Type: biochemical
Settings: for inhibition at 50 µM: test probe concentration 50 μM; for inhibition at 100 µM: test probe concentration 100 μM
Experimental: The biological assay (28320) for thrombin inhibitory activity is detailed below. To Nunc 96-well black fluorescence plate wells is added 70 microliters of assay buffer, followed by 10 microliters of 1 millimolar substrate solution. Test probe (10 microliters in 30% DMSO) is then added to wells according to the desired concentrations for the assay. The mixture is incubated at 37° C. for 5 minutes, followed by addition of 10 microliters of thrombin (100 micrograms/mL in assay buffer), to make a final assay volume of 100 microliters. The plate is mixed gently and incubated 15 minutes at 37° C. Stop buffer (100 microliters) is added, and the plate is read by detecting emission at 460 nm. Percent inhibition of test compound is calculated by comparison with control wells. “Assay buffer” is composed of 100 mM KH2PO4, 100 mM Na2HPO4, 1 mM EDTA, 0.01% BRIJ-35, and 1 mM dithiothreitol (added fresh on the day assay is preformed). “Stop buffer” is composed of 100 mM Na—O(O)CCH2Cl and 30 mM sodium acetate which is brought to pH 2.5 with glacial acetic acid. Thrombin was purchased from Sigma (cat #T-3399). Thrombin substrate III fluorogenic was purchased from ICN (cat #195915). Sodium acetate, dithiothreitol, and Brij-35 were purchased from Sigma. Sodium monochloroacetate was purchased from Lancaster 223-498-3. Glacial acetic acid was purchased from Alfa Aesar (cat #33252). Thrombin was stored at −20° C. Thrombin substrate fluorogenic was stored at −20° C. (5 mM in DMSO).
Results are expressed as percentage inhibition at a given test probe concentration in the Table below;

Row | inhibition at 50 µM | inhibition at 100 µM | SMILES
1 | 10 to 39% | 40 to 74% | C[C@@H](NC(=O)C(NC(=O)c1n[nH]c2ccccc12)C1CCNCC1)c1ccccc1 (stereo partly drawn) [Example B3]
2 | 10 to 39% | 40 to 74% | COc1ccc(CNC(=O)c2cc(Cl)ccc2NC(=O)c2n[nH]c3ccccc23)cc1OC [Example B1]
3 | 10 to 39% | 40 to 74% | CCCCN(CCCC)CCCNC(=O)c1cc(Cl)ccc1NC(=O)c1n[nH]c2ccccc12 [Example B2]

— patent US20110039714A1, “Probes, Systems, and Methods for Drug Discovery” (priority 2001, published 2011)
